According to PubChem BioAssay AID248 (DTP/NCI, 2004):
Where “and” joins values, the source holds several entries; their conditions need not be identical. Equal entries are not always repeated. Toxic doses and inconclusive results are not listed. Rule as the data show it: active = T/C of 150% or more; inactive = T/C below 125%.

System: L1210 leukemia ip in BDF1 mice, survival T/C
Test: NCI In Vivo Anticancer Drug Screen. Data for tumor model L1210 Leukemia (intraperitoneal) in B6D2F1 (BDF1) mice
Details: endpoint: mean survival time, higher = longer survival
Summary of the method: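 Tumor was transplanted into mice, which were then dosed with test compound or vehicle alone. Survival was recorded for each group, and the treated figure was expressed relative to the control figure.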

[1] = dose: 100.0 mg/kg/injection, schedule: Q01DX001 (ip), vehicle: carboxymethylcellulose (CMC)
[2] = dose: 200.0 mg/kg/injection, schedule: Q01DX001 (ip), vehicle: carboxymethylcellulose (CMC)
[3] = dose: 400.0 mg/kg/injection, schedule: Q01DX001 (ip), vehicle: carboxymethylcellulose (CMC)
[4] = dose: 100.0 mg/kg/injection, schedule: Q04DX003 (ip), vehicle: saline with Tween-80
[5] = dose: 200.0 mg/kg/injection, schedule: Q04DX003 (ip), vehicle: saline with Tween-80
[6] = dose: 400.0 mg/kg/injection, schedule: Q04DX003 (ip), vehicle: saline with Tween-80
[7] = dose: 100.0 mg/kg/injection, schedule: Q04DX003 (ip), vehicle: saline
[8] = dose: 200.0 mg/kg/injection, schedule: Q04DX003 (ip), vehicle: saline
[9] = dose: 400.0 mg/kg/injection, schedule: Q04DX003 (ip), vehicle: saline
[10] = dose: 100.0 mg/kg/injection, schedule: Q01DX001 (ip), vehicle: saline
[11] = dose: 200.0 mg/kg/injection, schedule: Q01DX001 (ip), vehicle: saline
[12] = dose: 400.0 mg/kg/injection, schedule: Q01DX001 (ip), vehicle: saline
[13] = dose: 100.0 mg/kg/injection, schedule: Q01DX009 (ip), vehicle: Klucel (hydroxypropylcellulose) (HPC)
[14] = dose: 200.0 mg/kg/injection, schedule: Q01DX009 (ip), vehicle: Klucel (hydroxypropylcellulose) (HPC)
[15] = dose: 400.0 mg/kg/injection, schedule: Q01DX009 (ip), vehicle: Klucel (hydroxypropylcellulose) (HPC)
[16] = dose: 100.0 mg/kg/injection, schedule: Q04DX002 (ip), vehicle: Klucel (hydroxypropylcellulose) (HPC)
[17] = dose: 200.0 mg/kg/injection, schedule: Q04DX002 (ip), vehicle: Klucel (hydroxypropylcellulose) (HPC)
[18] = dose: 400.0 mg/kg/injection, schedule: Q04DX002 (ip), vehicle: Klucel (hydroxypropylcellulose) (HPC)

Measured: T/C

O=C1CC(Cc2n[nH]c3c2CCCC3)CC(=O)N1
inactive: [1] 100 % of control | [2] 95 % of control | [3] 95 % of control

CC(Cc1ccccc1)Cc1ccccc1
inactive: [4] 96 % of control | [5] 88 % of control | [6] 98 % of control

COC(=O)C(N)CCl (stereo unspecified)
inactive: dose: 100.0 mg/kg/injection, schedule: Q01DX001 (ip), vehicle: steriod suspending solution 101 % of control | dose: 100.0 mg/kg/injection, schedule: Q01DX009 (ip), vehicle: saline 93 % of control | [7] 106 % of control | dose: 200.0 mg/kg/injection, schedule: Q01DX001 (ip), vehicle: steriod suspending solution 95 % of control | dose: 200.0 mg/kg/injection, schedule: Q01DX009 (ip), vehicle: saline 100 % of control | [8] 102 % of control | dose: 400.0 mg/kg/injection, schedule: Q01DX001 (ip), vehicle: steriod suspending solution 106 % of control | dose: 400.0 mg/kg/injection, schedule: Q01DX009 (ip), vehicle: saline 101 % of control | [9] 104 % of control

CCC(=O)CCC1CCCCC1
inactive: [10] 94 % of control | [11] 100 % of control | [12] 91 % of control

CC(=O)OCC1OC(n2cnc3c(Cl)nc(N)nc32)C(OC(C)=O)C1OC(C)=O (stereo unspecified)
inactive: dose: 100.0 mg/kg/injection, schedule: Q01DX005 (ip), vehicle: saline 103 % of control | dose: 200.0 mg/kg/injection, schedule: Q01DX005 (ip), vehicle: saline 101 % of control

COc1ccc2c(ccc3c2ncc2c(=O)[nH]n(C)c23)c1
inactive: dose: 50.0 mg/kg/injection, schedule: Q01DX009 (ip), vehicle: Klucel (hydroxypropylcellulose) (HPC) 93 % of control | [13] 93 % of control | [14] 93 % of control

CS(=O)(=O)CS(C)(=O)=O
inactive: [1] 93 % of control | [13] 94 % of control | [7] 94 % of control | [2] 93 % of control | [14] 105 % of control | [8] 98 % of control | [3] 110 % of control | [15] 101 % of control | [9] 93 % of control

CC1CC=CCC1COC(=O)C(=O)OCC1CC=CCC1C (stereo unspecified)
inactive: dose: 100.0 mg/kg/injection, schedule: Q01DX009 (ip), vehicle: saline with Tween-80 98 % of control | [4] 101 % of control | dose: 200.0 mg/kg/injection, schedule: Q01DX009 (ip), vehicle: saline with Tween-80 95 % of control | [5] 97 % of control | dose: 400.0 mg/kg/injection, schedule: Q01DX009 (ip), vehicle: saline with Tween-80 95 % of control | [6] 95 % of control

CS(=O)(=O)Oc1ccc2ccccc2c1[N+](=O)[O-]
inactive: [1] 98 % of control | [2] 98 % of control | [3] 98 % of control

CC1CCCN(C(=O)/C=C/c2ccccc2)C1 (stereo unspecified)
inactive: dose: 50.0 mg/kg/injection, schedule: Q04DX002 (ip), vehicle: saline 104 % of control | [16] 91 % of control | dose: 100.0 mg/kg/injection, schedule: Q04DX002 (ip), vehicle: saline 93 % of control | [17] 95 % of control | dose: 200.0 mg/kg/injection, schedule: Q04DX002 (ip), vehicle: saline 97 % of control | [18] 95 % of control

c1ccc(-c2ncc3cnccn23)cc1
inactive: dose: 25.0 mg/kg/injection, schedule: Q04DX003 (ip), vehicle: saline 100 % of control | dose: 50.0 mg/kg/injection, schedule: Q04DX003 (ip), vehicle: saline 102 % of control | [7] 98 % of control and 102 % of control

CC1(C)CCC(C)(C)c2c1ccc(O)c2Sc1c(O)ccc2c1C(C)(C)CCC2(C)C
inactive: [10] 87 % of control

Cc1n(CC(C)C)c2c([n+]1C)C(=O)c1ccccc1C2=O
inactive: dose: 0.03 mg/kg/injection, schedule: Q01DX001 (ip), vehicle: saline 98 % of control | dose: 0.06 mg/kg/injection, schedule: Q01DX001 (ip), vehicle: saline 109 % of control | dose: 0.12 mg/kg/injection, schedule: Q01DX001 (ip), vehicle: saline 106 % of control | dose: 0.24 mg/kg/injection, schedule: Q01DX001 (ip), vehicle: saline 101 % of control | dose: 0.25 mg/kg/injection, schedule: Q01DX015 (ip), vehicle: saline 97 % of control | dose: 0.5 mg/kg/injection, schedule: Q01DX015 (ip), vehicle: saline 95 % of control | dose: 1.0 mg/kg/injection, schedule: Q01DX015 (ip), vehicle: saline 106 % of control and 108 % of control | dose: 2.0 mg/kg/injection, schedule: Q01DX015 (ip), vehicle: saline 108 % of control | dose: 2.0 mg/kg/injection, schedule: Q04DX003 (ip), vehicle: saline 91 % of control

CCC(C)c1cc([N+](=O)[O-])cc([N+](=O)[O-])c1O (stereo unspecified)
inactive: dose: 12.5 mg/kg/injection, schedule: Q04DX003 (ip), vehicle: Klucel (hydroxypropylcellulose) (HPC) 95 % of control | dose: 25.0 mg/kg/injection, schedule: Q04DX003 (ip), vehicle: Klucel (hydroxypropylcellulose) (HPC) 98 % of control | dose: 50.0 mg/kg/injection, schedule: Q04DX003 (ip), vehicle: Klucel (hydroxypropylcellulose) (HPC) 96 % of control

Clc1ccccc1C1OC1c1ccccc1Cl (stereo unspecified)
inactive: [13] 105 % of control | [16] 98 % of control | [14] 102 % of control | [17] 91 % of control | [15] 94 % of control | [18] 102 % of control

CNc1ccc(Nc2cc(S(=O)(=O)O)c(N)c3c2C(=O)c2ccccc2C3=O)cc1
inactive: [10] 110 % of control | [11] 98 % of control | [12] 93 % of control

Cc1cccc(C(=O)NNC(=O)c2cccc(C)c2)c1
inactive: [13] 106 % of control | [14] 108 % of control

Cc1cnc(SCc2ccc(Cl)cc2)nc1N(C)C
inactive: dose: 25.0 mg/kg/injection, schedule: Q01DX Z (ip), vehicle: methylcellulose (MC) 90 % of control | dose: 50.0 mg/kg/injection, schedule: Q01DX Z (ip), vehicle: methylcellulose (MC) 100 % of control
